For one data set, the system named is HCV genotype 1. In words: Phase 1b trial, Study VX04-950-101. Particulars: subjects infected with HCV genotype 1.
Data set [1] is described as follows: Oral bioavailability of VX-950 (statement). The conditions noted are these: in vivo.
The nature of data set [2]: Randomized, double-blind, placebo-controlled single-dose escalation study in healthy male volunteers. In kind it is in vivo, human. Particulars: single doses, 25 mg to 1250 mg. On the procedure: Doses of 25 mg to 1250 mg were evaluated.
The subject of a further data set is genotype 1 HCV. The conditions noted are these: PROVE 1.
In data set [3] the test system is VX-950-resistant variants of HCV. In words: IC50 shift of VX-950-resistant variants.

Molecules are shown by their SMILES. “Also recorded” adds a separate entry of the source.

Regarding `CCC[C@H](NC(=O)[C@@H]1[C@H]2CCC[C@H]2CN1C(=O)[C@@H](NC(=O)[C@@H](NC(=O)c1cnccn1)C1CCCCC1)C(C)(C)C)C(=O)C(=O)NC1CC1` [VX-950], the antiviral activity entry in the data set with HCV genotype 1 is listed as “substantial antiviral activity”. The oral bioavailability result in data set [1] is “orally bioavailable”. Further, in data set [2], the “serious / severe adverse events” value is “No serious adverse events were reported; also recorded: No adverse events were considered to be severe” and the tolerability entry was “well tolerated at all dose levels”. The “pharmacokinetics of telaprevir among the different racial/ethnic groups” value with genotype 1 HCV is “No differences were observed”. Also, the “increase in IC50” value in data set [3] is reported as 7-20 fold.

The values above are taken from patent US20100226889A1, “HCV Combination Therapies” (priority 2007, published 2010).
